Test results as given in ChEMBL document CHEMBL3259566, “Design, synthesis, and evaluation of novel fluoroquinolone-flavonoid hybrids as potent antibiotics against drug-resistant microorganisms” (Eur J Med Chem, 2014).
Values after ≈ are worked out from the molar mass of the structure shown.

Tests used:
Bacillus subtilis [1] = test: Ratio of ciprofloxacin MIC50 to compound MIC50 for tetracycline-resistant Bacillus subtilis ATCC 6633; format: functional
Bacillus subtilis [2] = test: Antibacterial activity against tetracycline-resistant Bacillus subtilis ATCC 6633 assessed as growth inhibition by MTT assay; format: functional
Candida albicans [3] = test: Antibacterial activity against amphotericin B-resistant Candida albicans ATCC 90873 assessed as growth inhibition by MTT assay; format: functional
Staphylococcus aureus [4] = test: Antibacterial activity against methicillin-resistant Staphylococcus aureus ATCC 25923 assessed as growth inhibition by MTT assay; format: functional
Candida albicans [5] = test: Ratio of ciprofloxacin MIC50 to compound MIC50 for amphotericin B-resistant Candida albicans ATCC 90873; format: functional
Escherichia coli = test: Antibacterial activity against multidrug resistant Escherichia coli ATCC 35218 assessed as growth inhibition by MTT assay; format: functional
Staphylococcus aureus [6] = test: Ratio of ciprofloxacin MIC50 to compound MIC50 for methicillin-resistant Staphylococcus aureus ATCC 25923; format: functional
Staphylococcus aureus [7] = test: Drug uptake in Staphylococcus aureus at 10 ug/ml after 5 mins measured per mg of bacteria by spectrofluorometer analysis; format: ADME, organism-based; details: in vivo
Staphylococcus aureus [8] = test: Drug uptake in Staphylococcus aureus at 10 ug/ml after 5 mins measured per mg of bacteria by spectrofluorometer analysis in presence of carbonyl cyanide m-chlorophenylhydrazone; format: ADME, organism-based; details: in vivo
[9] = Inhibition of DNA gyrase activity in Escherichia coli using relaxed pBR322 DNA as substrate assessed as DNA supercoiling activity after 40 mins by agarose gel electrophoresis
[10] = Drug efflux assessed as Staphylococcus aureus multidrug resistance efflux pump-mediated efflux rate at 10 ug/ml after 5 mins; format: ADME

Row | SMILES | Ratio (Bacillus subtilis [1]) | MIC50 (Bacillus subtilis [2]) [µg/mL] | MIC50 (Candida albicans [3]) [µg/mL] | MIC50 (Staphylococcus aureus [4]) [µg/mL] | Ratio (Candida albicans [5]) | MIC50 (Escherichia coli) [µg/mL] | Ratio (Staphylococcus aureus [6]) | Drug uptake (Staphylococcus aureus [7]) [ng] | Drug uptake (Staphylococcus aureus [8]) [ng] | IC50 [9] [nM] | Activity [10] [%]
1 | O=C(O)c1cn(-c2ccc(F)cc2)c2cc(N3CCN(CCOc4cc(O)c5c(=O)c(-c6ccc(O)cc6)coc5c4)CC3)c(F)cc2c1=O | 43 | 1.88 (≈ 2.76 µM) | 4.05 (≈ 5.94 µM) | 9.65 (≈ 14.2 µM) | 88 | 37.4 (≈ 54.9 µM) |  |  |  |  | 
2 | CCn1cc(C(=O)O)c(=O)c2cc(F)c(N3CCN(CCOc4cc(O)c5c(c4)O[C@H](c4ccc(O)cc4)CC5=O)C(C)C3)c(F)c21 (stereo partly specified) | 43 | 1.4 (≈ 2.16 µM) | 4.73 (≈ 7.28 µM) | 28.4 (≈ 43.7 µM) | 88 | > 50 |  |  |  |  | 
3 | O=C(O)c1cn(C2CC2)c2cc(N3CCN(CCOc4cc(O)c5c(=O)cc(-c6ccc(O)cc6)oc5c4)CC3)c(F)cc2c1=O | 43 | 2.64 (≈ 4.21 µM) | 9.37 (≈ 14.9 µM) | 8.84 (≈ 14.1 µM) | 88 | 39.7 (≈ 63.3 µM) |  |  |  |  | 
4 | CCn1cc(C(=O)O)c(=O)c2cc(F)c(N3CCN(CCOc4cc(O)c5c(=O)cc(-c6ccccc6)oc5c4)CC3)nc21 |  | > 50 | > 50 | > 50 |  | > 50 |  |  |  |  | 
5 | CCn1cc(C(=O)O)c(=O)c2cc(F)c(N3CCN(CCOc4cc(O)c5c(=O)c(-c6ccc(OC)cc6)coc5c4)CC3)cc21 |  | 32.8 (≈ 52.1 µM) | 42.5 (≈ 67.5 µM) | 34.1 (≈ 54.2 µM) |  | > 50 |  |  |  |  | 
6 | CCn1cc(C(=O)O)c(=O)c2cc(F)c(N3CCN(CCOc4cc(O)c5c(=O)cc(-c6ccccc6)oc5c4)C(C)C3)c(F)c21 (stereo unspecified) |  | > 50 | > 50 | > 50 |  | > 50 |  |  |  |  | 
7 | CCn1cc(C(=O)O)c(=O)c2cc(F)c(N3CCN(CCOc4cc(O)c5c(c4)O[C@H](c4ccc(O)cc4)CC5=O)CC3)cc21 | 43 | 0.35 (≈ 0.567 µM) | 0.96 (≈ 1.55 µM) | 7.14 (≈ 11.6 µM) | 88 | 28.8 (≈ 46.6 µM) |  |  |  |  | 
8 | CC1CN(c2c(F)c(N)c3c(=O)c(C(=O)O)cn(C4CC4)c3c2F)CC(C)N1CCOc1cc(O)c2c(=O)cc(-c3ccccc3)oc2c1 (stereo unspecified) |  | > 50 | > 50 | > 50 |  | > 50 |  |  |  |  | 
9 | CCn1cc(C(=O)O)c(=O)c2cc(F)c(N3CCN(CCOc4cc(O)c5c(=O)c(-c6ccc(O)cc6)coc5c4)CC3)nc21 |  | 16.1 (≈ 26.1 µM) | 17.5 (≈ 28.4 µM) | 33.6 (≈ 54.5 µM) | 88 | > 50 |  |  |  |  | 
10 | O=C1C[C@@H](c2ccc(O)cc2)Oc2cc(OCCN3CCN(c4cc5c(cc4F)c(=O)c(C(=O)O)cn5-c4ccc(F)cc4)CC3)cc(O)c21 | 43 | 0.22 (≈ 0.322 µM) | 0.76 (≈ 1.11 µM) | 0.32 (≈ 0.468 µM) | 88 | 17.5 (≈ 25.6 µM) | 23 | 54.51 | 63.09 | 1680 | 13.6
11 | CCn1cc(C(=O)O)c(=O)c2cc(F)c(N3CCN(CCOc4cc(O)c5c(=O)c(-c6ccc(O)cc6)coc5c4)CC3)cc21 |  | 3.33 (≈ 5.41 µM) | 8.76 (≈ 14.2 µM) | 19.3 (≈ 31.4 µM) | 88 | 40.5 (≈ 65.8 µM) |  |  |  |  | 
